These results are taken from ChEMBL document CHEMBL5726278, “Cytochrome P450 inhibitors and their method of use” (2017).

A short description of the assay: Cyp21 Assay : Cyp21 assay protocol: AD293 cells that stably over-express recombinant CYP-21 were seeded in 96 well plates coated with poly D-lysine (10,000 cell per well) and incubated at 37° C. for 24 hours in Dulbecco's Modified Eagle Medium (DMEM) with Fetal Bovine Serum (FBS) that is stripped of hormones by charcoal treatment. The media is then removed, the cells are washed once with Phosphate buffer saline solution, and 50 μL Dulbecco's Modified Eagle Medium (DMEM) with Fetal Bovine Serum (FBS) that is stripped of hormones by charcoal treatment is added. Compounds of the disclosure are then added to the wells in eight concentration spanning 10 μM to 4.5 nM, and the plates are incubated for an additional 60 minutes at 37° C. 17α-OH Progesterone is then added (1.0 μM) and the plates are incubated for an additional 45 minutes at 37° C. After incubation, 50 uL of the supernatant (medium) is transferred into a fresh plate and 150 uL of an acetonitrile solution containing 200 ng/ml of Telmisartan is added. The sample is mixed and then placed in a centrifuge at 2000 rpm for 5 minutes. The conditions noted are these: AD293, 24 h.

As a reminder, the IC50 is the concentration that inhibits the measured activity by half. Regarding `CC(C)S(=O)(=O)N1CCN(c2ccc(/C=C/c3cc(F)cc(Cn4ccnc4)c3)cc2)CC1`, the IC50 amounted to 700 nM.

On to `Clc1cc(/C=C/c2ccc(N3CCN(C4=NCCO4)CC3)cc2)cc(Cn2ccnc2)c1`, for which the IC50 came out at 3500 nM.

Regarding `CS(=O)(=O)N1CCN(c2ccc(/C=C/c3cc(F)cc(Cn4ccnc4)c3)cc2)CC1`, the half-inhibitory concentration (IC50) was found to be 10000 nM.

`N=C(N)N1CCN(c2ccc(/C=C/c3cc(F)cc(Cn4ccnc4)c3)cc2)CC1`: the IC50 was determined as 10000 nM.

For `CS(=O)(=O)N1CCN(c2ccc(/C=C/c3cc(Cl)cc(Cn4ccnc4)c3)cc2)CC1`, the IC50 was 2200 nM.

Consider `CS(=O)(=O)N1CCN(c2ccc(/C=C/c3cc(Cl)cc(-c4ccncc4)c3)cc2)CC1`, for which the IC50 turned out to be 840 nM.

As to `CC(C)S(=O)(=O)N1CCN(c2ccc(/C=C/c3cc(Cl)cc(-c4ccncc4)c3)cc2)CC1`, the IC50 was determined as 565 nM.

On to `Fc1cc(/C=C/c2ccc(N3CCN(C4=NCCO4)CC3)cc2)cc(-c2ccncc2)c1`, for which the IC50 was determined as 1200 nM.

Take `N=C(N)N1CCN(c2ccc(/C=C/c3cc(F)cc(-c4ccncc4)c3)cc2)CC1`: the concentration for half-maximal inhibition (IC50) worked out at 10000 nM.

Consider `N=C(N)N1CCN(c2ccc(/C=C/c3cc(Cl)cc(Cn4ccnc4)c3)cc2)CC1`, for which the IC50 came to 10000 nM.

Regarding `Fc1cc(/C=C/c2ccc(N3CCN(C4=NCCCO4)CC3)cc2)cc(Cn2ccnc2)c1`, the IC50 was determined as 1000 nM.

In the case of `O=S(=O)(C1CC1)N1CCN(c2ccc(/C=C/c3cc(Cl)cc(-c4ccncc4)c3)cc2)CC1`, the IC50 was 416 nM.

Regarding `Clc1cc(/C=C/c2ccc(N3CCN(C4=NCCO4)CC3)cc2)cc(-c2ccncc2)c1`, the IC50 is 1200 nM.

Take `CS(=O)(=O)N1CCN(c2ccc(/C=C/c3cc(F)cc(-c4ccncc4)c3)cc2)CC1`: the concentration for half-maximal inhibition (IC50) is 740 nM.

Take `N=C(N)N1CCN(c2ccc(/C=C/c3cc(Cl)cc(-c4ccncc4)c3)cc2)CC1`: the IC50 came out at 10000 nM.

For the compound `[C-]#[N+]CS(=O)(=O)N1CCN(c2ccc(/C=C/c3cc(F)cc(Cn4ccnc4)c3)cc2)CC1`, the IC50 came out at 10000 nM.

In the case of `Fc1cc(/C=C/c2ccc(N3CCN(C4=NCCO4)CC3)cc2)cc(Cn2ccnc2)c1`, the IC50 stood at 10000 nM.
